Assay results taken from the NIST ThermoML archive (doi:10.1021/acs.jced.5b00181).

Key:
[1] = xn = mol fraction of the nth substance listed; details: 101 kPa, Liquid, x2 = 0; for viscosity: Falling or rolling sphere viscometry; for speed of sound: Frequency=3 MHz, Sing-around technique in a fixed-path interferometer; for mass density: Vibrating tube method
[2] = 101 kPa, Liquid; for viscosity: Falling or rolling sphere viscometry; for speed of sound: Frequency=3 MHz, Sing-around technique in a fixed-path interferometer; for mass density: Vibrating tube method

CCCO [propan-1-ol] + CCn1cc[n+](C)c1.O=S(=O)([N-]S(=O)(=O)C(F)(F)F)C(F)(F)F
[1]
Details	mass density [kg/m3]	speed of sound [m/s]	viscosity [mPa·s]
278.15 K	815.46	1275.5	3.191
298.15 K	799.55	1205.3	1.936
318.15 K	783.18	1137.5	1.242
338.15 K	765.96	1070.8	0.836

CCCO [propan-1-ol] + CCCC[n+]1ccn(C)c1.O=S(=O)([N-]S(=O)(=O)C(F)(F)F)C(F)(F)F
[1]
Details	mass density [kg/m3]	speed of sound [m/s]	viscosity [mPa·s]
278.15 K	815.46	1275.5	3.191
298.15 K	799.55	1205.3	1.936
318.15 K	783.18	1137.5	1.242
338.15 K	765.96	1070.8	0.836

CCCO [propan-1-ol]
[2]
Details	mass density [kg/m3]	speed of sound [m/s]	viscosity [mPa·s]
278.15 K	815.46	1275.5	3.191
298.15 K	799.55	1205.3	1.936
318.15 K	783.18	1137.5	1.242
338.15 K	765.96	1070.8	0.836

CCCO [propan-1-ol] + CCCCCC[n+]1ccn(C)c1.O=S(=O)([N-]S(=O)(=O)C(F)(F)F)C(F)(F)F
[1]
Details	mass density [kg/m3]	speed of sound [m/s]	viscosity [mPa·s]
278.15 K	815.46	1275.5	3.191
298.15 K	799.55	1205.3	1.936
318.15 K	783.18	1137.5	1.242
338.15 K	765.96	1070.8	0.836
